Test results published in publication PMC11812085, “Structural Dynamics of the Ubiquitin Specific Protease USP30 in Complex with a Cyanopyrrolidine-Containing Covalent Inhibitor” (Journal of Proteome Research, 2025).

Biological target: T1, USP30 (ubiquitin specific protease 30) (Homo sapiens, UniProt Q70CQ3, DEL179-216/DEL288-305)
T1 construct: residues 64-502Δ179-216 and 288-305
T1 sequence (Q70CQ3 with tags, fused parts or gaps DEL179-216/DEL288-305): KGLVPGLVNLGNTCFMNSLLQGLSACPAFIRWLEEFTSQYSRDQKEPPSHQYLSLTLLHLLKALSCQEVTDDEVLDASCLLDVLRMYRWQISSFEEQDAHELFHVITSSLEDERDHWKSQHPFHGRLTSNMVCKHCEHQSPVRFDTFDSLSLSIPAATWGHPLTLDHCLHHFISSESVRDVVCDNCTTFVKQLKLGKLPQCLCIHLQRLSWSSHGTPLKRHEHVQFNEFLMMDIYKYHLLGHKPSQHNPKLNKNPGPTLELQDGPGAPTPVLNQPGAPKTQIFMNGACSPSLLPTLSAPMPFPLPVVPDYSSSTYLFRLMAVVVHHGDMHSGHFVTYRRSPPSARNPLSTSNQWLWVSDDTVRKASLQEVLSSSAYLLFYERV
Experiment: RapidFire MS of covalent complex and HDX-MS on recombinant USP30; KI from kinact/KI kinetics with Ub-rhodamine (IC50 […] after […] min preincubation; […] in SH-SY5Y lysate ABPP)
Format: biochemical

KI (inactivation): ~350 nM
SMILES: C[C@@H]1C[C@@H](NC(=O)c2ncc(-c3cccc(C#N)c3)o2)CN1C#N [USP30-I-1]
